From PMC9883252 (iScience, 2023)

Legend:
[1] = system: P. falciparum gametocytes (NF54 and 3601E1); assay: Activity against synchronous gametocytes; assay type: cell-based, Plasmodium falciparum; settings: stage V
[2] = system: P. falciparum NF54 strain; assay: Inhibition activity in the asexual blood stages; assay type: cell-based; settings: Plasmodium falciparum, NF54, 72 h, read-out: Pf IC50 (mean)

SMILES | killing of late stage gametocytes [1] | IC50 [2] [nM]
COc1ccc(C[C@H](N)C(=O)N[C@H]2[C@@H](O)[C@H](n3cnc4c(N(C)C)ncnc43)O[C@@H]2CO)cc1 [Puromycin, puromycin] | does not reach complete killing | –
COc1ccc2cc1Oc1ccc(cc1)C[C@@H]1NCCc3cc(OC)c4c(c31)Oc1cc3c(cc1O4)CCN(C)[C@H]3C2 [trilobine] | – | 410
